Legend:
Assay in all cases: relative viability (nuclei count vs DMSO), 5 days (fraction); higher = more cells survive
GW-2580 + Bortezomib = compound: COC1=CC=C(C=C1)COC2=C(C=C(C=C2)CC3=CN=C(N=C3N)N)OC [GW-2580] + CC(C)C[C@H](NC(=O)[C@H](Cc1ccccc1)NC(=O)c1cnccn1)B(O)O [Bortezomib] (partner 0.002 µM)
Procedure, shortened: (§1)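 Dosing by pin tool came one day after lung cancer cell lines were seeded in 1536-well plates, using either one drug or a fixed anchor-drug dose plus five library-drug doses (not always all listed) in √10 steps. After 5 days, nuclei were counted on 4× images. Relative viability is treated-well nuclei count divided by vehicle-well nuclei count, and values are medians of duplicate plates.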

GW-2580 + Luminespib = compound: COC1=CC=C(C=C1)COC2=C(C=C(C=C2)CC3=CN=C(N=C3N)N)OC [GW-2580] + CCNC(=O)c1noc(-c2cc(C(C)C)c(O)cc2O)c1-c1ccc(CN2CCOCC2)cc1 [Luminespib] (partner 0.01 µM)
Procedure, shortened: as §1

Fedratinib + AZD7762 = compound: Cc1cnc(Nc2ccc(OCCN3CCCC3)cc2)nc1Nc1cccc(S(=O)(=O)NC(C)(C)C)c1 [Fedratinib] + NC(=O)Nc1cc(-c2cccc(F)c2)sc1C(=O)N[C@H]1CCCNC1 [AZD7762] (partner 0.2 µM)
Procedure, shortened: as §1

GW-2580 + AZD7762 = compound: COC1=CC=C(C=C1)COC2=C(C=C(C=C2)CC3=CN=C(N=C3N)N)OC [GW-2580] + NC(=O)Nc1cc(-c2cccc(F)c2)sc1C(=O)N[C@H]1CCCNC1 [AZD7762] (partner 0.2 µM)
Procedure, shortened: as §1

GW-2580 + Vorinostat = compound: COC1=CC=C(C=C1)COC2=C(C=C(C=C2)CC3=CN=C(N=C3N)N)OC [GW-2580] + O=C(CCCCCCC(=O)Nc1ccccc1)NO [Vorinostat] (partner 1 µM)
Procedure, shortened: as §1

Cell Line | relative viability (GW-2580 + Bortezomib; first compound 0.08 µM) | relative viability (GW-2580 + Bortezomib; first compound 0.8 µM) | relative viability (GW-2580 + Bortezomib; first compound 2.53 µM) | relative viability (GW-2580 + Bortezomib; first compound 8 µM) | relative viability (GW-2580 + Luminespib; first compound 0.08 µM) | relative viability (GW-2580 + Luminespib; first compound 0.8 µM) | relative viability (GW-2580 + Luminespib; first compound 2.53 µM) | relative viability (GW-2580 + Luminespib; first compound 8 µM) | relative viability (Fedratinib + AZD7762; first compound 0.1 µM) | relative viability (Fedratinib + AZD7762; first compound 0.3162 µM) | relative viability (Fedratinib + AZD7762; first compound 1 µM) | relative viability (GW-2580 + AZD7762; first compound 0.08 µM) | relative viability (GW-2580 + AZD7762; first compound 0.8 µM) | relative viability (GW-2580 + AZD7762; first compound 2.53 µM) | relative viability (GW-2580 + AZD7762; first compound 8 µM) | relative viability (GW-2580 + Vorinostat; first compound 0.08 µM) | relative viability (GW-2580 + Vorinostat; first compound 0.8 µM) | relative viability (GW-2580 + Vorinostat; first compound 2.53 µM) | relative viability (GW-2580 + Vorinostat; first compound 8 µM)
HCC-44 | 0.95 | 0.997 | 0.822 | 0.914 | 1.14 | 0.945 | 0.988 | 1.15 | 0.995 | 1 | 1 | 0.994 | 1 | 1.03 | 0.999 | 1.13 | 1.08 | 1.19 | 1.1
HCC-827 | 0.964 | 1.12 | 1.01 | 0.952 | 0.92 | 0.762 | 0.508 | 0.56 | 0.161 | 0.205 | 0.219 | 0.207 | 0.244 | 0.201 | 0.214 | 0.652 | 0.915 | 0.828 | 0.832
NCI-H1623 |  |  |  |  | 0.382 | 0.43 | 0.482 | 0.471 |  |  |  |  |  |  |  |  |  |  | 
NCI-H2347 | 1.01 | 1.23 | 0.842 | 1.26 | 0.491 | 0.656 | 0.369 | 0.471 | 0.757 | 0.645 | 0.857 | 0.852 | 0.855 | 0.636 | 0.776 | 0.619 | 0.621 | 0.549 | 0.575
PC-14 | 0.934 | 1.09 | 0.779 | 0.95 | 0.144 | 0.129 | 0.175 | 0.131 | 0.275 | 0.349 | 0.215 | 0.47 | 0.484 | 0.271 | 0.396 | 0.919 | 0.977 | 0.724 | 0.607
NCI-H1651 | 0.953 | 1.08 | 0.89 | 0.942 | 0.877 | 1.01 | 0.8 | 0.823 | 0.502 | 0.404 | 0.435 | 0.452 | 0.53 | 0.535 | 0.455 | 0.516 | 0.636 | 0.534 | 0.555
HARA | 1.2 | 1.17 | 1.33 | 1.31 | 0.882 | 0.801 | 0.389 | 0.596 | 0.429 | 0.28 | 0.23 | 0.302 | 0.252 | 0.294 | 0.221 | 0.561 | 0.601 | 0.548 | 0.588
NCI-H1650 | 0.218 | 0.232 | 0.164 | 0.199 | 0.195 | 0.195 | 0.197 | 0.182 |  |  |  |  |  |  |  | 0.541 | 0.901 | 0.457 | 0.586
NCI-H1395 |  |  |  |  | 0.723 | 0.665 | 0.648 | 0.59 | 0.385 | 0.402 | 0.377 | 0.421 | 0.377 | 0.422 | 0.416 | 0.669 | 0.662 | 0.623 | 0.742
LU99A | 1.1 | 1.15 | 0.986 | 1.17 | 0.289 | 0.241 | 0.193 | 0.273 | 0.322 | 0.325 | 0.272 | 0.509 | 0.315 | 0.267 | 0.281 | 0.646 | 0.522 | 0.435 | 0.528
NCI-H1355 | 1.24 | 1.38 | 1.06 | 1.16 | 0.816 | 0.841 | 0.694 | 0.669 | 0.646 | 0.707 | 0.612 | 0.807 | 0.767 | 0.566 | 0.676 | 0.701 | 0.656 | 0.529 | 0.697
HCC-78 | 0.457 | 0.422 | 0.353 | 0.465 |  |  |  |  | 0.582 | 0.526 | 0.497 | 0.637 | 0.663 | 0.564 | 0.589 | 0.461 | 0.441 | 0.389 | 0.39
NCI-H1563 | 0.8 | 0.986 | 0.764 | 0.842 | 0.546 | 0.522 | 0.484 | 0.545 |  |  |  |  |  |  |  |  |  |  | 
HCC-15 | 1.06 | 1.16 | 1.05 | 1.02 | 0.308 | 0.296 | 0.436 | 0.521 | 1.19 | 1.28 | 1.2 | 1.02 | 1.44 | 1.21 | 1.39 | 0.866 | 1.07 | 0.787 | 0.75
EKVX | 1.09 | 1.12 | 0.874 | 1.01 | 0.93 | 0.936 | 0.863 | 0.923 | 0.738 | 0.815 | 0.656 | 0.7 | 0.777 | 0.644 | 0.804 | 0.711 | 0.951 | 0.808 | 0.679
NCI-H2087 | 0.966 | 1.16 | 0.79 | 0.872 | 0.133 | 0.179 | 0.174 | 0.164 | 1.39 | 1.37 | 1.42 | 1.33 | 1.4 | 1.12 | 0.937 | 0.802 | 0.807 | 0.696 | 0.715
LK-2 |  |  |  |  | 0.16 | 0.173 | 0.238 | 0.175 | 0.286 | 0.393 | 0.293 | 0.44 | 0.681 | 0.269 | 0.284 | 0.242 | 0.28 | 0.205 | 0.311
NCI-H1437 | 0.654 | 0.569 | 0.518 | 0.516 | 1.17 | 1.16 | 1.05 | 0.786 | 1.13 | 1.13 | 1.09 | 1.11 | 1.09 | 1.04 | 0.995 | 0.923 | 0.918 | 0.674 | 0.534

Reference: the supplement of paper PMC10307832
